Data set [1] concerns CEM, MCF7, HeLa, HCT 116 cancer cell lines and BJ fibroblasts.
Procedure: (§1) Doxorubicin was used as a positive control.
(§2) The screening cell lines, T-lymphoblastic leukemia (CEM), cervical carcinoma (HeLa), breast carcinoma (MCF7), and human foreskin fibroblasts (BJ) were obtained from the American Type Culture Collection (Manassas, VA, USA). Cells were cultured in DMEM (Dulbecco’s Modified Eagle Medium, Sigma Aldrich, Darmstadt, Germany). Media used were supplemented with 10% fetal bovine serum, 2 mM L-glutamine, and 1% penicillin-streptomycin (all from Sigma Aldrich, Darmstadt, Germany). The cell lines were maintained under standard cell culture conditions at 37 °C and 5% CO2 in humid environment. Cells were subcultured twice or three times a week using the standard trypsinization procedure.
Data set [2] has as its system human colon carcinoma (HCT 116) cells. As to the kind of experiment: Cytotoxicity screening test, HCT 116. As to conditions: HCT-116, 72 h, read-out: Cytotoxicity IC50, HCT 116.
In data set [3] the test system is human cervical cancer (HeLa) cells. As to the kind of experiment: Cytotoxicity screening test, HeLa. As to conditions: 72 h, read-out: Cytotoxicity IC50, HeLa.
Procedure: as §1, §2
Data set [4] relates to human breast adenocarcinoma (MCF7) cells. As to the kind of experiment: Cytotoxicity screening test, MCF7. As to conditions: MCF7, 72 h, read-out: Cytotoxicity IC50, MCF7.
Procedure: as §1, §2
Data set [5] relates to human T-lymphoblastic leukemia (CEM) cells. As to the kind of experiment: Cytotoxicity screening test, CEM. As to conditions: CCRF-CEM, 72 h, read-out: Cytotoxicity IC50, CEM.
Procedure: as §1, §2
A short description of data set [6]: in vitro. As to conditions: human.
Procedure: as §1, §2
The nature of data set [7]: Cytotoxicity screening test, BJ reference cells. As to conditions: human, BJ normal foreskin fibroblasts.
Procedure: as §1, §2
Data set [8] relates to CEM, MCF7, HeLa, HCT 116 cancer cell lines and BJ fibroblasts. As to the kind of experiment: Cytotoxicity screening tests, summary statements over the cell line panel. As to conditions: for IC50: Homo sapiens, 72 h, read-out: IC50 against all tested cell lines.
Procedure: as §1, §2

Where two headings read alike, the source gives them in different places.

The term IC50 denotes the point on the concentration scale where inhibition reaches its midpoint.

`C=C(C)[C@@H]1CC[C@]2(C(=O)O)CC[C@]3(C)[C@H](CC[C@@H]4[C@@]5(C)CC[C@H](OCc6cn(CCCCC(=O)O)nn6)C(C)(C)[C@@H]5CC[C@]43C)[C@@H]12` [Compound 6, (3β)-3-{[1-(4-Carboxybutyl)-1H-1,2,3-triazol-4-yl]methoxy}lup-20(29)-en-28-oic Acid]: in data set [1], the “Cytotoxicity (in words)” value is “inactive”. The IC50 in data set [2], in data set [3], in data set [4] and in data set [5] was greater than 50 µM in each case. Besides, in data set [6], the IC50 at 72 h is greater than 50 µM.
As for `C[C@@H]1CC[C@@]2(OC1)O[C@H]1C[C@H]3[C@@H]4CC=C5C[C@@H](O)CC[C@]5(C)[C@H]4CC[C@]3(C)[C@H]1[C@@H]2C` [Compound 1, (3β,25R)-spirost-5-en-3-ol, reference compound], the half-inhibitory concentration (IC50) in data set [2], in data set [3], in data set [4], in data set [8] and in data set [5] was greater than 50 µM in each case. In addition, the IC50 at 72 h in data set [7] is greater than 50 µM.
For `C=C(C)[C@@H]1CC[C@]2(C(=O)OCc3ccccc3)CC[C@]3(C)[C@H](CC[C@@H]4[C@@]5(C)CC[C@H](O)C(C)(C)[C@@H]5CC[C@]43C)[C@@H]12` [Compound 3, Benzyl (3β)-3-hydroxylup-20(29)-en-28-oate], the “Cytotoxicity (in words)” value in data set [1] is reported as “no cytotoxicity”. The IC50 in data set [2], in data set [3], in data set [4], in data set [8] and in data set [5] was greater than 50 µM in each case. In addition, the concentration for half-maximal inhibition (IC50) at 72 h in data set [6] is greater than 50 µM.
Consider `C=C(C)[C@@H]1CC[C@]2(C(=O)O)CC[C@]3(C)[C@H](CC[C@@H]4[C@@]5(C)CC[C@H](O)C(C)(C)[C@@H]5CC[C@]43C)[C@@H]12` [Compound 2, 3β-hydroxylup-20(29)-en-28-oic acid, reference compound], for which the IC50 in data set [2], in data set [3], in data set [4], in data set [8] and in data set [5] was greater than 50 µM in each case. For the same molecule, the IC50 at 72 h in data set [7] was greater than 50 µM. Further, the “Cytotoxicity (in words)” value in data set [8] (summary over the tested cell lines) is recorded as “no cytotoxicity”.
`C=C(C)[C@@H]1CC[C@]2(C(=O)OCc3ccccc3)CC[C@]3(C)[C@H](CC[C@@H]4[C@@]5(C)CC[C@H](OCc6cn(CCCCC(=O)O)nn6)C(C)(C)[C@@H]5CC[C@]43C)[C@@H]12` [Compound 5, 5-[4-({[(3β)-28-(Benzyloxy)-28-oxolup-20(29)-en-3-yl]oxy}-methyl)-1H-1,2,3-triazol-1-yl]pentanoic acid]: the IC50 is 19.4 ± 2.1 µM in data set [2], 20.3 ± 4.4 µM in data set [3], 49.5 ± 0.7 µM in data set [4] and 15.8 ± 0.6 µM in data set [5]. In data set [6], this molecule came in with an IC50 at 72 h greater than 50 µM.
For `C=C(C)[C@@H]1CC[C@]2(C(=O)OCc3ccccc3)CC[C@]3(C)[C@H](CC[C@@H]4[C@@]5(C)CC[C@H](OCc6cn(CCCCC(=O)O[C@H]7CC[C@@]8(C)C(=CC[C@H]9[C@@H]%10C[C@@H]%11O[C@]%12(CC[C@@H](C)CO%12)[C@@H](C)[C@@H]%11[C@@]%10(C)CC[C@@H]98)C7)nn6)C(C)(C)[C@@H]5CC[C@]43C)[C@@H]12` [Compound 7, Benzyl (3β)-3-[(1-{5-oxo-5-[(3β,25R)-spirost-5-en-3-yloxy]pentyl}-1H-1,2,3-triazol-4-yl)methoxy]lup-20(29)-en-28-oate], the “Cytotoxicity (in words)” value in data set [1] is reported as “medium to weak multifarious cytotoxicity”. The IC50 in data set [2] was greater than 50 µM; in data set [3], greater than 50 µM; in data set [4] it was greater than 50 µM; in data set [5], 6.5 ± 1.1 µM. In data set [6], this molecule displayed an IC50 at 72 h of 46.2 ± 2.8 µM.
Take `COc1cccc2c1C(=O)c1c(O)c3c(c(O)c1C2=O)C[C@@](O)(C(=O)CO)C[C@@H]3O[C@H]1C[C@H](N)[C@H](O)[C@H](C)O1` [Doxorubicin, reference compound]: the IC50 in data set [2] was 0.524 ± 0.177 µM. Besides, the half-inhibitory concentration (IC50) at 72 h in data set [7] worked out at 0.278 ± 0.036 µM.
Turning to `C#CCO[C@H]1CC[C@]2(C)[C@H]3CC[C@@H]4[C@H]5[C@H](C(=C)C)CC[C@]5(C(=O)OCc5ccccc5)CC[C@@]4(C)[C@]3(C)CC[C@H]2C1(C)C` [Compound 4, Benzyl (3β)-3-(prop-2-yn-1-yloxy)lup-20(29)-en-28-oate], the “Cytotoxicity (in words)” value in data set [1] is reported as “no cytotoxicity”. In addition, the IC50 in data set [2], in data set [3], in data set [4], in data set [8] and in data set [5] was greater than 50 µM each time. In addition, the IC50 at 72 h in data set [6] was greater than 50 µM.
On to `C=C(C)[C@@H]1CC[C@]2(C(=O)O)CC[C@]3(C)[C@H](CC[C@@H]4[C@@]5(C)CC[C@H](OCc6cn(CCCCC(=O)O[C@H]7CC[C@@]8(C)C(=CC[C@H]9[C@@H]%10C[C@@H]%11O[C@]%12(CC[C@@H](C)CO%12)[C@@H](C)[C@@H]%11[C@@]%10(C)CC[C@@H]98)C7)nn6)C(C)(C)[C@@H]5CC[C@]43C)[C@@H]12` [Compound 8, (3β)-3-[(1-{5-Oxo-5-[(3β,25R)-spirost-5-en-3-yloxy]pentyl}-1H-1,2,3-triazol-4-yl]methoxy}lup-20(29)-en-28-oic Acid], for which the IC50 in data set [2], in data set [3], in data set [4] and in data set [5] was greater than 50 µM each time. In addition, the IC50 at 72 h in data set [6] is greater than 50 µM.

The values are drawn from PMC7435711, “Synthesis and Pharmacological Effects of Diosgenin–Betulinic Acid Conjugates” (Molecules, 2020).
